Reference: patent US4569792A, “Anti-diabetic compounds” (Eli Lilly and Company, priority 1984, dated 1986)

What was measured:
Conditions in all cases: relative to human proinsulin = 1
[1] = system: insulin receptor (125I-insulin binding to IM-9 cells); assay: IM-9 Radioreceptor Assay
Procedure: IM-9 cells were grown in RPMI media containing 2mM glutamine, 25 mM HEPES, and 10% fetal bovine serum. […] Incubations were carried out in 1.5 ml microfuge tubes at 15° C. for two hours. Concentrations of stock solutions containing insulin, proinsulin, or compound of this invention used in the binding studies were established by amino acid analysis and by their absorbance at 276 nm. The cells were resuspended during the assay every 30 minutes by inverting the tubes several times. At the end of the incubation, the tubes were centrifuged for one minute in a Beckman Microfuge, the supernatant was aspirated, the tips of the tubes containing the cell pellet were excised, and the radioactivity was measured.

[2] = system: isolated rat adipocytes; assay: Biological Activity in Isolated Rat Adipocytes (incorporation of 2-3H-glucose in total fat cell lipid); type: cell-based
Procedure: Adipocytes were prepared from epididymal fat pads by a modification (Huber, supra) of the collagenase digestion procedure of Rodbell, supra. Krebs-Ringer-HEPES (KRH) buffer, pH 7.4, containing 4% bovine serum albumin and 0.55 mM glucose was used in all isolation and incubation steps.
Biological activity was assessed according to the method of Moody, A. J., Stan, M. A., Stan, M., and Glieman, J., Horm. Metab. Res. 6, 12-16 (1974) by monitoring the incorporation of 2-^3 H-glucose in total fat cell lipid. […] Radioactivity was determined in a Searle Isocap 300 liquid scintillation counter at an efficiency of approximately 30%. Blanks were prepared in which the scintillation fluid was added to the vials prior to the addition of cells. The average counts obtained from these vials were subtracted from those observed in all other samples.
Competitive binding curves and biological activity dose-response curves were analyzed using the PREFIT and ALLFIT programs [DeLean, A., Munson, P. J., and Rodbard, D., Am. J. Physiol. 235, E97-E102 (1978)] based on a four-parameter logistic model. These analyses indicated the concentration of insulin or proinsulin necessary to produce a half-maximal response, as well as the maximal and minimal values. All values are presented as the mean ± SEM.

[3] = system: insulin receptor (125I-labeled insulin binding to isolated fat cells); assay: Isolated Fat Cell Radioreceptor Assay
Procedure: Isolated fat cells were prepared by a modification [Huber, C. T., Solomon, S. S., and Duckworth, W. C., J. Clin. Invest. […] All incubations were in Krebs-Ringer-Hepes (KRH) buffer, pH 7.4, with 4% bovine serum albumin (BSA) in a total volume of 2 ml. […] At selected times, triplicate 300 μl aliquots were removed and added to microfuge tubes containing 100 μl dinonyl phthalate [see Gliemann, J., Osterlind, K., Vinten, J., and Gammeltoft, S., Biochem. Biophys. Acta. […] After centrifugation for one minute in a microfuge, the tubes were cut through the oil layer, and the cell pellet was counted using a gamma counter to determine binding.

Measured: Relative Potency

Human Proinsulin
1: all assays above
